Data on 2 substances can be found in US9260444B2, “Crystalline form of 2-((1′-n-hexyloxy) ethyl)-2-divinyl-pyropheophorbide-a and method for preparing thereof” (Zhejiang Hisun Pharmaceutical Co., Ltd., priority 2012, dated 2016).

Series [1] can be described thus: Long term stability experiment of the HPPH crystal. The class given is physicochemical. To be noted: for Total impurity (%) / Content (based on dry weight, %): Temp 25° C. ± 2° C., Humidity 60% ± 5%; for Content (based on dry weight, %): standard content 98.0% to 102.0%. As to the method: According to the Guidelines to the stability studies of active pharmaceutical ingredient and pharmaceutical preparation (Chinese Pharmacopoeia, 2010 Edition, the Second Part, Appendix XIX C) (Appendix 199 to 200), selecting the HPPH crystal sample prepared in Embodiment 1 (Lot No. S111101), mimicking pack to selling, placing it in an incubator at the temperature of 25° C.±2° C., and the relative humidity of 60%±5%, after 6 months, taking the sample out, and examining it with the key examination items for stability, then comparing the examination results with the results obtained in the 0 month.

Series [2] is described as follows: Accelerated stability experiment of the HPPH crystal. The class given is physicochemical. As to conditions: for Total impurity (%) / Content (based on dry weight, %): Temp 40° C. ± 2° C., Humidity 75% ± 5%; for Content (based on dry weight, %): standard content 98.0% to 102.0%. On the procedure:
According to the Guidelines to the stability studies of active pharmaceutical ingredient and pharmaceutical preparation (Chinese Pharmacopoeia, 2010 Edition, the Second Part, Appendix XIX C) (Appendix 199 to 200), selecting the HPPH crystal sample prepared in Embodiment 1 (Lot No. S111101), mimicking pack to selling, placing in an incubator at the temperature of 40° C.±2° C., and the relative humidity of 75%±5%, after 6 months, taking the sample out, and examining it with the key examination items for stability, then comparing the examination results with the results obtained in the 0 month.

A further series has as its system esophageal cancer. To be noted: cited from earlier work.

Regarding “2-((1′-n-hexyloxy)ethyl)-2-divinyl-pyropheophorbide-a [HPPH crystal]”, the “Change of key stability examination items versus 0 month” value in series [1] (25° C. ± 2° C., relative humidity 60% ± 5%, after 6 months) is recorded as “no examination item has shown significant change”. For the same substance, the “Total impurity (%)” value was 0.25% in series [1] (0 month), 0.26% in series [1] (6 months), 0.25% in series [2] (0 month) and 0.27% in series [2] (6 months). The “Content (based on dry weight, %)” value in series [1] (0 month) came to 99.9%; in series [1] (6 months), 99.8%; in series [2] (0 month) it was 99.9%; in series [2] (6 months), 98.9%. In series [2] (40° C. ± 2° C., relative humidity 75% ± 5%, after 6 months), the “Content in the 6 month sample versus 0 month” value is on record as “slightly lower, yet still within the acceptable range”.
Turning to “2-((1′-n-hexyloxy)ethyl)-2-divinyl-pyropheophorbide-a [HPPH]”, the Photodynamic therapeutic efficacy entry in the series with esophageal cancer (5 esophageal cancer patients, very low dose) is on record as “very good photodynamic therapeutic efficacy”. Besides, the “Photosensitive side effect of skin” value with esophageal cancer (clinical observation, esophageal cancer patients) is reported as “no photosensitive side effect of skin has been observed”.
